Data as given in patent publication US8017584B2, “GD3-mimetic peptides” (Otsuka Pharmaceutical Co., Ltd., priority 2000, dated 2011).

Experiments:
[1] = tested on: GD3 antibody 4F6; assay: ELISA of immobilized MAP-form GD3-mimetic peptides with anti-GD3 antibody (Example 3(3)); format: binding, mouse; conditions: for ELISA absorbance, Anti-GD3 antibody: MAP form 100 ng/well
Description: A 0.1M NaHCO3 solution containing each of the phage clones obtained in Example 1 (10^11, 10^10, or 10^9 titer/100 μL) was added to the wells of a 96-well microtiter plate (product of Nunc), for immobilization of the phage clones at room temperature for one hour. The supernatant was removed, then the wells were subjected to blocking by use of a blocking solution ([…]; TBS containing 1% BSA, 0.1% skim milk, and 0.02% Tween 20; pH 7.5) at 37° C. for four hours.
The supernatant was removed, then GD3 antibody 4F6 (100 μL), serving as a primary antibody, was added to each well for reaction under shaking at room temperature for two hours. After completion of reaction, the supernatant was removed, then the wells were washed six times with a washing solution (400 μL for each well, TBS containing 0.05% Tween 20). Subsequently, a secondary antibody (anti-mouse IgG-HRP, product of Santa Cruz Biotechnology, catalogue No. SC-2031, Lot. No. C089) which was diluted 5,000-fold by use of a blocking solution prepared in advance was added to the wells (100 μL to each well) for reaction under shaking at room temperature for one hour. After completion of reaction, the wells were washed four times with a washing solution (400 μL for each well), then a detection reagent (TMB Microwell; product of KPL, Catalogue No. 50-76-04, Lot. No. WF075) was added to the wells (100 μL to each well), and the mixture was allowed to stand for five minutes at room temperature.
1N-Hydrochloric acid (100 μL) was added to each well for stopping the reaction. Absorbance of each well was measured at 450 nm and 620 nm, and “OD450-OD620” was calculated. A Multiscan (product of Labosystems) was used in measurement of absorbance. A well in which phages had not been immobilized served as a blank, and the absorbance of each well was determined by subtracting the blank value from the “as-measured” value.
(§1) A 0.1M NaHCO3 solution containing a GD3-mimetic peptide of the invention in the above MAP form (100 ng/100 μL) was added to the wells of a 96-well micro-titer plate, for immobilization at room temperature for one hour. Subsequently, in a manner similar to the ELISA method employed in Example 2, binding affinity of the GD3-mimetic peptide to GD3 antibody 4F6 was investigated.
(§2) Anti-GD2 antibody and anti-OAcGD3 antibody (Cerato, E., et al., Hybridoma, 16(4), 307-316 (1997)) were used as controls (these antibodies were kindly provided by from Dr. Portoukalian).

[2] = tested on: Anti-GD2 antibody; assay: ELISA of immobilized MAP-form peptides with control anti-GD2 antibody; format: binding; conditions: MAP form 100 ng/well
Description: as §1, §2

[3] = tested on: Anti-OAcGD3 antibody; assay: ELISA of immobilized MAP-form peptides with control anti-OAcGD3 antibody; format: binding; conditions: MAP form 100 ng/well
Description: as §1, §2

[4] = tested on: binding between GD3 and 4F6; assay: Inhibition by exogenously added MAPs of binding between GD3 and 4F6 (Example 5(4), FIG. 5); design: species or system mouse; conditions: for inhibitory effect of exogenously added sample on binding between GD3 and 4F6 (words, FIG. 5): added simultaneously with 4F6 to GD3 100 ng/well; for order of binding strength to 4F6: deduced from FIG. 5
Description: (4) Next, investigation was made as to whether binding between GD3R3 or GD3R4 and 4F6 occurred at the GD3 binding site of 4F6. To the wells of a plate to which GD3 had been immobilized (100 ng/well), each of the MAP samples having a variety of concentrations shown on the X-axis in FIG. 5 and 4F6 (100 μL/well) were simultaneously added, whereby an inhibitory test was performed. The test was performed in triplicate, and the values in the graph are “mean ±SD.”

[5] = tested on: T-cell-rich lymphocytes / IL-2-dependent CTLL2 cells; assay: Cell response test: IL-2 activity (3H thymidine up-take of CTLL2 cells) in supernatant of spleen cells of mice immunized with R4 peptide (R4-KLH); format: cell-based, mouse; conditions: for activation of T cells: R4-KLH-immunized mice; for 3H Thymidine up-take into CTLL2 cells, mean ± SE (4 wells): mice immunized with R4 peptide
Description: Using a fusion peptide R4-KLH obtained in Example 3 (4) between GD3R4 and KLH or a MAP form fusion peptide R4MAP-KLH created between GD3R4 and KLH, immunization was performed as described in (1) above.
Briefly, an emulsion mixed with an adjuvant (1:1, by volume) was administered to each member of groups of mice, each group consisting of 3 mice (CD-1), in an amount of 100 μL/mouse (for one administration (ip), peptide 30 μg/mouse) for immunization. In the case of R4-KLH, administration was performed every one week for one month, and subsequently every two weeks for one month; and in the case of R4MAP-KLH, every one week for 2 months. In any case, 4 days after the final immunization, blood was collected to thereby prepare antiserum samples.
The spleen aseptically removed from each of the above-immunized mice was minced in a 10% FCS-supplemented RPMI 1640 medium. By use of a nylon wool column, T-cell-rich lymphocytes were prepared and the cells were counted. The above medium containing the cells in an amount of 10^5 cells per 150 μL was added to each of the wells of a culture plate. PHA was added so as to attain a final concentration of 1 μg/mL. A peptide of the present invention or any of different gangliosides in PBS was added, and the mixture was incubated for 96 hours. A supernatant (100 μL) was obtained from each well. The IL-2 activity of the supernatant was determined through use of IL-2-dependent mouse cells, CTLL2. Briefly, the supernatant (100 μL) diluted 2 to 50-fold with a medium was added to the wells in an amount of 10^4 CTLL2 cells/well, followed by incubation at 37° C. for 48 hours. Subsequently, 3H-thymidine (0.5 μCi) was added to each well, followed by incubation for 6 hours. CTLL2 cells were recovered on a paper filter and counted for 3H.

[6] = stimulant 1 μg/ml, supernatant dilution 1/20
[7] = stimulant 1 μg/ml, supernatant dilution 1/50
[8] = stimulant 1 μg/ml, supernatant dilution ½
[9] = stimulant 1 μg/ml, supernatant dilution ⅕
[10] = stimulant 2 μg/ml, supernatant dilution 1/20
[11] = stimulant 2 μg/ml, supernatant dilution 1/50
[12] = stimulant 2 μg/ml, supernatant dilution ½
[13] = stimulant 2 μg/ml, supernatant dilution ⅕
[14] = stimulant 5 μg/ml, supernatant dilution 1/20
[15] = stimulant 5 μg/ml, supernatant dilution 1/50
[16] = stimulant 5 μg/ml, supernatant dilution ½
[17] = stimulant 5 μg/ml, supernatant dilution ⅕

| Sequence | ELISA absorbance, Anti-GD3 antibody ([1]; Serum % 12.50%) | ELISA absorbance, Anti-GD3 antibody ([1]; Serum % 25%) | ELISA absorbance, Anti-GD3 antibody ([1]; Serum % 50%) | ELISA absorbance, Anti-GD3 antibody ([1]; Serum % 100%) | ELISA absorbance, Anti-GD2 antibody ([2]; Serum % 12.50%) | ELISA absorbance, Anti-GD2 antibody ([2]; Serum % 25%) | ELISA absorbance, Anti-GD2 antibody ([2]; Serum % 50%) | ELISA absorbance, Anti-GD2 antibody ([2]; Serum % 100%) | ELISA absorbance, Anti-OAcGD3 antibody ([3]; Serum % 12.50%) | ELISA absorbance, Anti-OAcGD3 antibody ([3]; Serum % 25%) | ELISA absorbance, Anti-OAcGD3 antibody ([3]; Serum % 50%) | ELISA absorbance, Anti-OAcGD3 antibody ([3]; Serum % 100%) | 3H Thymidine up-take into CTLL2 cells, mean ± SE (4 wells) [5, 6] | 3H Thymidine up-take into CTLL2 cells, mean ± SE (4 wells) [5, 7] | 3H Thymidine up-take into CTLL2 cells, mean ± SE (4 wells) [5, 8] | 3H Thymidine up-take into CTLL2 cells, mean ± SE (4 wells) [5, 9] | 3H Thymidine up-take into CTLL2 cells, mean ± SE (4 wells) [5, 10] | 3H Thymidine up-take into CTLL2 cells, mean ± SE (4 wells) [5, 11] | 3H Thymidine up-take into CTLL2 cells, mean ± SE (4 wells) [5, 12] | 3H Thymidine up-take into CTLL2 cells, mean ± SE (4 wells) [5, 13] | other results |
| --- | --- | --- | --- | --- | --- | --- | --- | --- | --- | --- | --- | --- | --- | --- | --- | --- | --- | --- | --- | --- | --- |
| GLAPPDYAERFELLS [GD3R3, tested as phage clone, MAP form or peptide] | 0.176 | 0.237 | 0.357 | 0.483 | 0.077 | 0.118 | 0.036 | 0.191 | 0.031 | 0.026 | 0.031 | 0.044 | 1491 ± 364 | 682 ± 120 | 5577 ± 1063 | 2986 ± 327 | 1527 ± 337 | 736 ± 137 | 6351 ± 1314 | 3184 ± 439 | binding to the anti-GD3 antibody [1]: stronger bonding to the anti-GD3 antibody; inhibitory effect of exogenously added sample on binding between GD3 and 4F6 (words, FIG. 5) [4]: exhibited inhibitory effect; order of binding strength to 4F6 [4]: GD3>GD3R3>GD3R4; binding to anti-GD3 antibody 4F6, overall conclusion ([4]; taken together, Example 5): the strongest in binding; activation of T cells [5]: T cells have been confirmed to have activated; 3H Thymidine up-take into CTLL2 cells, mean ± SE (4 wells) [5, 14]: 1684 ± 375; 3H Thymidine up-take into CTLL2 cells, mean ± SE (4 wells) [5, 15]: 812 ± 151; 3H Thymidine up-take into CTLL2 cells, mean ± SE (4 wells) [5, 16]: 7898 ± 1496; 3H Thymidine up-take into CTLL2 cells, mean ± SE (4 wells) [5, 17]: 3652 ± 681 |
| PHFDSLLYPCELLGC (PHFDSLLYPCQLLGC) [GD3R2, tested as phage clone, MAP form or peptide] | 0.055 | 0.105 | 0.159 | 0.264 | 0.052 | 0.071 | 0.079 | 0.132 | 0.021 | 0.023 | 0.027 | 0.038 | 745 ± 136 | 178 ± 38 | 2857 ± 493 | 1714 ± 239 | 694 ± 141 | 163 ± 41 | 2764 ± 322 | 1653 ± 286 | 3H Thymidine up-take into CTLL2 cells, mean ± SE (4 wells) [5, 14]: 748 ± 162; 3H Thymidine up-take into CTLL2 cells, mean ± SE (4 wells) [5, 15]: 174 ± 32; 3H Thymidine up-take into CTLL2 cells, mean ± SE (4 wells) [5, 16]: 2849 ± 396; 3H Thymidine up-take into CTLL2 cells, mean ± SE (4 wells) [5, 17]: 1628 ± 245 |
| RHAYRSMAEWGFLYS (RHAYRSMAQWGFLYS) [GD3R4, tested as phage clone, MAP form or peptide] | 0.144 | 0.229 | 0.309 | 0.381 | 0.061 | 0.072 | 0.103 | 0.149 | 0.045 | 0.043 | 0.047 | 0.061 | 2420 ± 561 | 1017 ± 182 | 6781 ± 1549 | 4413 ± 854 | 7934 ± 1031 | 2742 ± 751 | 15383 ± 2194 | 10375 ± 1708 | binding to the anti-GD3 antibody [1]: stronger bonding to the anti-GD3 antibody; inhibitory effect of exogenously added sample on binding between GD3 and 4F6 (words, FIG. 5) [4]: did not; order of binding strength to 4F6 [4]: GD3>GD3R3>GD3R4; activation of T cells [5]: T cells have been confirmed to have activated; 3H Thymidine up-take into CTLL2 cells, mean ± SE (4 wells) [5, 14]: 8354 ± 957; 3H Thymidine up-take into CTLL2 cells, mean ± SE (4 wells) [5, 15]: 3058 ± 568; 3H Thymidine up-take into CTLL2 cells, mean ± SE (4 wells) [5, 16]: 18692 ± 2310; 3H Thymidine up-take into CTLL2 cells, mean ± SE (4 wells) [5, 17]: 12657 ± 1624 |
| LAPPRPRSELVFLSV (LAPPRPRSQLVFLSV) [GD3R1, tested as phage clone, MAP form or peptide] | 0.083 | 0.127 | 0.137 | 0.263 | 0.065 | 0.067 | 0.095 | 0.123 | 0.04 | 0.041 | 0.046 | 0.053 | 949 ± 136 | 225 ± 38 | 3218 ± 716 | 1876 ± 281 | 845 ± 147 | 220 ± 40 | 3417 ± 542 | 1864 ± 327 | 3H Thymidine up-take into CTLL2 cells, mean ± SE (4 wells) [5, 14]: 901 ± 152; 3H Thymidine up-take into CTLL2 cells, mean ± SE (4 wells) [5, 15]: 236 ± 45; 3H Thymidine up-take into CTLL2 cells, mean ± SE (4 wells) [5, 16]: 3469 ± 612; 3H Thymidine up-take into CTLL2 cells, mean ± SE (4 wells) [5, 17]: 1781 ± 285 |
